Assay results as given in US10538554B2, “Peptides and uses therefor as antiviral agents” (priority 2015, dated 2020).
Where two headings read alike, the source gives them in different places. Bridge positions count the residues as written; N and C are the ends. Square brackets hold non-standard residues; d marks the D form. Peptide text beside a SMILES is read from it.

Columns and labels:
H9N2 A/Iran/16/2000 = settings: 48 h
[1] = tested on: avian influenza A virus H9N2; settings: cited from earlier work
[2] = tested on: H1N1 A1/Malaysia/302/1954; settings: A1/Malaysia/302/1954, 48 h
H3N8 A/Miami/2/63 = settings: A/Miami/2/63, 48 h
H3N2 A/HK/8/1968 = settings: A/HK/8/1968, 48 h
H1N1 A/NY/18/2009 = settings: A/NY/18/2009, 48 h; for % Inhibition Pdm 2009: 10 μM
H1N1 A/PR/8/1934 [3] = settings: A/PR/8/1934, 48 h; for % Inhibition PR/8: 10 μM
[4] = tested on: H5N1 A/Kampung pasir/5744/2004; settings: A/Kampung pasir/5744/2004, 48 h
[5] = tested on: Influenza B/MALAYSIA/2506/04
H1N1 A/PR/8/1934 [6] = assay: microbe, parasite or virus in culture; settings: Influenza A virus, MDCK, read-out: IC50 PR8

SMILES | IC50 (H9N2 A/Iran/16/2000) | % inhibition H9N2 (H9N2 A/Iran/16/2000; 10 μM) | IC50 [2] | % inhibition H1N1 ([2]; 10 μM) | IC50 (H3N8 A/Miami/2/63) | % inhibition H3N8 (H3N8 A/Miami/2/63; 10 μM) | IC50 (H3N2 A/HK/8/1968) | % inhibition H3N2 (H3N2 A/HK/8/1968; 10 μM) | IC50 (H1N1 A/NY/18/2009) | % Inhibition Pdm 2009 (H1N1 A/NY/18/2009) | IC50 (H1N1 A/PR/8/1934 [3]) | % Inhibition PR/8 (H1N1 A/PR/8/1934 [3]) | IC50 [4] | further results
C[C@@H](O)[C@@H]1NC(=O)[C@H](CCCCN)NC(=O)[C@H](CO)NC(=O)[C@H](CCCNC(=N)N)NC(=O)[C@H](Cc2ccccc2)NC(=O)[C@H](CC(=O)O)NC(=O)[C@H](CC(N)=O)NC(=O)[C@@H](N)CSSC[C@@H](C(=O)O)NC1=O [C-P1, H-CNDFRSKTC-OH, reference compound] (H-CNDFRSKTC-OH; disulfide 1-9) | > 320000 nM |  |  |  |  |  |  |  |  |  |  |  |  | inhibition of avian influenza A virus H9N2 replication [1]: modest efficacy
CC[C@@H](C)[C@H]1NC(=O)[C@@H](Cc2ccccc2)NC(=O)[C@@H](Cc2ccccc2)NC(=O)[C@@H](Cc2ccccc2)NC(=O)[C@@H](Cc2c[nH]c3ccccc23)NC(=O)[C@@H]([C@H](C)O)NC(=O)[C@H](NC(=O)[C@H](CCCCN)NC(=O)[C@H](CCCCN)NC(=O)[C@H](CCCNC(=N)N)NC(=O)[C@@H](N)CCCNC(=N)N)CSSC[C@H](C(=O)O)NC(=O)[C@@H](CC(N)=O)NC1=O [PSP IV A5, H-RRKKctwfffinc-OH] (H-RRKK[dC][dT][dW][dF][dF][dF][dI][dN][dC]-OH; disulfide 5-13) | 760 nM | 93% | 300 nM | 99% | 300 nM | 98% | 300 nM | 99% | 1000 nM | 98% | 400 nM | 99% | 550 nM | 
CC[C@@H](C)[C@H]1NC(=O)[C@@H](Cc2ccccc2)NC(=O)[C@@H](CCCNC(=N)N)NC(=O)[C@@H](Cc2ccccc2)NC(=O)[C@@H](Cc2c[nH]c3ccccc23)NC(=O)[C@@H]([C@H](C)O)NC(=O)[C@H](NC(=O)[C@H](CCCCN)NC(=O)[C@H](CCCCN)NC(=O)[C@H](CCCNC(=N)N)NC(=O)[C@@H](N)CCCNC(=N)N)CSSC[C@H](C(=O)O)NC(=O)[C@@H](CC(N)=O)NC1=O [PSP III B5, H-RRKKctwfrfinc-OH] (H-RRKK[dC][dT][dW][dF][dR][dF][dI][dN][dC]-OH; disulfide 5-13) | 900 nM | 76% | 1600 nM | 80% | 150 nM | 92% | 1400 nM | 87% | 1170 nM | 73% | 1200 nM | 88% | 220 nM | % inhibition H9N2 (H9N2 A/Iran/16/2000; 50 μM): 90%; % inhibition H1N1 ([2]; 50 μM): 96%; % inhibition H3N8 (H3N8 A/Miami/2/63; 50 μM): 100%; % inhibition H3N2 (H3N2 A/HK/8/1968; 50 μM): 100%
CC[C@@H](C)[C@H]1NC(=O)[C@@H](Cc2ccccc2)NC(=O)[C@@H]([C@H](C)O)NC(=O)[C@@H](Cc2ccccc2)NC(=O)[C@@H](Cc2c[nH]c3ccccc23)NC(=O)[C@@H]([C@H](C)O)NC(=O)[C@H](NC(=O)[C@H](CCCCN)NC(=O)[C@H](CCCCN)NC(=O)[C@H](CCCNC(=N)N)NC(=O)[C@@H](N)CCCNC(=N)N)CSSC[C@H](C(=O)O)NC(=O)[C@@H](CC(N)=O)NC1=O [PSP IV A17, H-RRKKctwftfinc-OH] (H-RRKK[dC][dT][dW][dF][dT][dF][dI][dN][dC]-OH; disulfide 5-13) |  | 92% | 51 nM | 91% |  | 97% | 56 nM | 97% | 33 nM | 97% | 260 nM | 97% |  | % Inhibition (H1N1 A/PR/8/1934 [3]; 1 μM): <20%; IC50 [5]: 990 nM
CCC(CC)O[C@@H]1C=C(C(=O)O)C[C@H](N)[C@H]1NC(C)=O [Oseltamivir acid] |  |  |  |  |  |  |  |  |  |  |  |  |  | IC50 (H1N1 A/PR/8/1934 [6]): 140 nM
